Source: PubChem BioAssay (NCI)
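Five concentrations, 48 hours, 96-well plates. TGI denotes the concentration required for complete inhibition of growth.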

What was measured:
Assay in all cases: growth of human tumour cells (NCI), 48 h
HL-60(TB) leukemia = system: HL-60(TB) leukemia
SK-MEL-2 melanoma = system: SK-MEL-2 melanoma
HOP-92 NSCLC = system: HOP-92 NSCLC
SF-268 CNS = system: SF-268 CNS
NCI/ADR-RES ovarian = system: NCI/ADR-RES ovarian
PC-3 prostate = system: PC-3 prostate
HCC-2998 colon = system: HCC-2998 colon
OVCAR-8 ovarian = system: OVCAR-8 ovarian
HCT-15 colon = system: HCT-15 colon
DU-145 prostate = system: DU-145 prostate
HOP-62 NSCLC = system: HOP-62 NSCLC
MDA-N = system: MDA-N
A498 renal = system: A498 renal
SR leukemia = system: SR leukemia
T-47D breast = system: T-47D breast
LOX IMVI melanoma = system: LOX IMVI melanoma
EKVX NSCLC = system: EKVX NSCLC
SF-539 CNS = system: SF-539 CNS
OVCAR-3 ovarian = system: OVCAR-3 ovarian
A549 NSCLC = system: A549 NSCLC

| SMILES | TGI (HL-60(TB) leukemia) | TGI (SK-MEL-2 melanoma) | TGI (HOP-92 NSCLC) | TGI (SF-268 CNS) | TGI (NCI/ADR-RES ovarian) | TGI (PC-3 prostate) | TGI (HCC-2998 colon) | TGI (OVCAR-8 ovarian) | TGI (HCT-15 colon) | TGI (DU-145 prostate) | TGI (HOP-62 NSCLC) | TGI (MDA-N) | TGI (A498 renal) | TGI (SR leukemia) | TGI (T-47D breast) | TGI (LOX IMVI melanoma) | TGI (EKVX NSCLC) | TGI (SF-539 CNS) | TGI (OVCAR-3 ovarian) | TGI (A549 NSCLC) |
| --- | --- | --- | --- | --- | --- | --- | --- | --- | --- | --- | --- | --- | --- | --- | --- | --- | --- | --- | --- | --- |
| CC(=O)[C@H]1CC[C@H]2[C@@H]3CCC4=CC(=O)CC[C@]4(C)[C@H]3CC[C@]12C | 87.1 µM | 44.3 µM | 71.3 µM | 69.8 µM | 31.3 µM | 39.3 µM | 31.4 µM | 47.3 µM | 69.3 µM | 94.3 µM | 45.4 µM | 35.9 µM | 67.1 µM | > 100 µM | 57.8 µM | 33.3 µM | 9.66 µM | 34.1 µM | 35 µM | 88.5 µM |
| CC(/C=N/N(C)C1=NCCCCN1)=N/N(C)C1=NCCCCN1 | > 100 µM | > 100 µM | > 100 µM | > 100 µM | > 100 µM | > 100 µM | > 100 µM | > 100 µM | > 100 µM | > 100 µM | > 100 µM | > 100 µM | > 100 µM | > 100 µM | > 100 µM | > 100 µM | > 100 µM | > 100 µM | > 100 µM | > 100 µM |
| OC12C3C4CC5C(C4[C@@H]1Br)C2[C@@](O)(c1c(F)c(F)c(F)c(F)c1F)C53 (stereo not given in full) | > 100 µM | 69.2 µM | 68.7 µM | > 100 µM | 85.9 µM | 94.4 µM | > 100 µM | > 100 µM | > 100 µM | > 100 µM | > 100 µM | > 100 µM | > 100 µM | 52.7 µM | > 100 µM | > 100 µM | 98.9 µM | > 100 µM | 65.8 µM | > 100 µM |
| N#Cc1nc(C(F)(F)F)oc1N | > 100 µM | > 100 µM | > 100 µM | > 100 µM | > 100 µM | > 100 µM | > 100 µM | > 100 µM | > 100 µM | > 100 µM | > 100 µM | > 100 µM | > 100 µM | > 100 µM | > 100 µM | > 100 µM | > 100 µM | > 100 µM | > 100 µM | > 100 µM |
| O=C(CCCC1Cc2ccccc2C1=O)c1ccccc1 (stereo not given) | 77.4 µM | > 100 µM | > 100 µM | > 100 µM | 84.6 µM | > 100 µM | > 100 µM | > 100 µM | > 100 µM | > 100 µM | > 100 µM | > 100 µM | > 100 µM | > 100 µM | > 100 µM | > 100 µM | > 100 µM | > 100 µM | > 100 µM | > 100 µM |
| COC(=O)c1ccc(CCC2=CC(=O)C(Br)=CC2=O)cc1 | 5.2 µM | 31.9 µM | 11.9 µM | 43 µM | 43.8 µM | 30.9 µM | 29.1 µM | 32 µM | 27.6 µM | 32 µM | 31.6 µM | 31.4 µM | 36.5 µM | > 100 µM | 70.9 µM | 33.3 µM | 38.7 µM | 31.8 µM | 31.4 µM | 36.9 µM |
| COc1ccc(-c2cc(C3CC3)nc(SCC(=O)O)c2C#N)cc1 | > 100 µM | > 100 µM | > 100 µM | > 100 µM | > 100 µM | > 100 µM | > 100 µM | > 100 µM | > 100 µM | > 100 µM | > 100 µM | > 100 µM | > 100 µM | > 100 µM | > 100 µM | > 100 µM | > 100 µM | > 100 µM | > 100 µM | > 100 µM |
| COc1ccc2c(c1)c(=O)c1c(NCCCN(C)CCCNc3ccc4c(=O)n(CCN(C)C)c(=O)n5c6ccc(OC)cc6c(=O)c3c45)ccc3c(=O)n(CCN(C)C)c(=O)n2c31 | 0.963 µM | 2.44 µM | 0.941 µM | 1.88 µM | 2.26 µM | 0.858 µM | 0.544 µM | 2.65 µM | 0.617 µM | 1.18 µM | 1.04 µM | 1.49 µM | 3.39 µM | 0.255 µM | 9.43 µM | 0.161 µM | 1.3 µM | 1.95 µM | 2.56 µM | 1.26 µM |
| CN(C)c1ccc(/C=N/n2c(-c3ccccc3)nc3ccccc3c2=O)cc1 | > 100 µM | > 100 µM | > 100 µM | > 100 µM | > 100 µM | > 100 µM | > 100 µM | > 100 µM | > 100 µM | > 100 µM | > 100 µM | > 100 µM | > 100 µM | 83.6 µM | > 100 µM | > 100 µM | > 100 µM | > 100 µM | > 100 µM | > 100 µM |
| O=C1c2n[nH]nc2C(=O)c2n[nH]nc21 | > 100 µM | > 100 µM | > 100 µM | > 100 µM | > 100 µM | > 100 µM | > 100 µM | > 100 µM | > 100 µM | > 100 µM | > 100 µM | > 100 µM | > 100 µM | > 100 µM | > 100 µM | > 100 µM | > 100 µM | > 100 µM | > 100 µM | > 100 µM |
| CCOP(=O)(CC1CC(O)(CNc2cc(Cl)nc(N)n2)C1)OCC (stereo not given) | > 100 µM | > 100 µM | > 100 µM | > 100 µM | > 100 µM | > 100 µM | > 100 µM | > 100 µM | > 100 µM | > 100 µM | > 100 µM | > 100 µM | > 100 µM | > 100 µM | > 100 µM | > 100 µM | > 100 µM | > 100 µM | > 100 µM | > 100 µM |
| Cc1ccc(S(=O)(=O)Nc2nc3ccccc3c(=O)n2C2CCCCC2)cc1 | > 100 µM | > 100 µM | > 100 µM | > 100 µM | > 100 µM | > 100 µM | > 100 µM | > 100 µM | > 100 µM | > 100 µM | > 100 µM | > 100 µM | > 100 µM | > 100 µM | > 100 µM | > 100 µM | > 100 µM | > 100 µM | > 100 µM | > 100 µM |
| COC(=O)c1c(O)ccc2c1c1c(n2Cc2ccc(OC)cc2)C(=O)c2ccccc2C1=O | 12.1 µM | 25.6 µM | 25.3 µM | 55 µM | 37.2 µM | 21.1 µM | 7.18 µM | 11.7 µM | 16.7 µM | 52.5 µM | 33.2 µM | 32.7 µM | 47.2 µM | 2.92 µM | 46.1 µM | 23.2 µM | > 100 µM | 29.1 µM | 43.9 µM | 21.6 µM |
| CC1(CCc2ccccc2)CC1(Br)Br (stereo not given) | 41.9 µM | 36.1 µM | 60.2 µM | > 100 µM | > 100 µM | > 100 µM | 76.2 µM | 50.8 µM | > 100 µM | > 100 µM | > 100 µM | > 100 µM | > 100 µM | 41.6 µM | > 100 µM | 37.4 µM | 40 µM | > 100 µM | 39.9 µM | > 100 µM |
| CC(C)=CCC/C(=C\CC/C(=C\CCc1ccoc1)C(=O)O)C(=O)O | > 100 µM | > 100 µM | > 100 µM | > 100 µM | > 100 µM | > 100 µM | > 100 µM | > 100 µM | > 100 µM | > 100 µM | > 100 µM | > 100 µM | > 100 µM | > 100 µM | > 100 µM | > 100 µM | > 100 µM | > 100 µM | > 100 µM | > 100 µM |
